Results taken from ChEMBL document CHEMBL1144378, “Analogues of the neuroprotective tripeptide Gly-Pro-Glu (GPE): synthesis and structure-activity relationships” (Bioorg Med Chem Lett, 2005).
Activity calls are given as the source filed them. The rule behind the calls is not given here.

What follows are molecules tested against Glutamate NMDA receptor (assay: Displacement of L-[3H]glutamate from N-methyl-D-aspartate glutamate receptor in rat brain synaptic membranes). Settings: not given.
Format: cell membranes, Membrane

**Q.** With N[C@H](CCCP(=O)(O)O)C(=O)O as the molecule, how does the Ki read?
**A.** 3.83 µM

The molecules below were run against Glutamate NMDA receptor (Rattus norvegicus) (UniProt P35439+Q00959+Q00960+Q00961+Q62645+Q8VHN2+Q9R1M7) (assay: Displacement of L-[3H]glutamate from N-methyl-D-aspartate glutamate receptor in rat brain synaptic membranes; No displacement up to 100 uM). Settings: Membrane.
Format: cell membranes

**Q.** With NCC(=O)N1CCC[C@H]1C(=O)N[C@@H](CC(=O)O)C(=O)O as the molecule, how does the Activity read?
**A.** inactive

**Q.** How did the Activity turn out when NCC(=O)N1CCC[C@H]1C(=O)N[C@@H](CCCC(=O)O)C(=O)O was run?
**A.** inactive

**Q.** For NCC(=O)N1CCC[C@H]1C(=O)N[C@H](CCC(=O)O)C(=O)O, which Activity is on record?
**A.** inactive

**Q.** For NCC(=O)N1CCC[C@@H]1C(=O)N[C@@H](CCC(=O)O)C(=O)O, which Activity is on record?
**A.** inactive

**Q.** How did the Activity turn out when CC1(C)SC[C@H](C(=O)N[C@@H](CCC(=O)O)C(=O)O)N1C(=O)CN was run?
**A.** inactive

**Q.** NCC(=O)N1CCC[C@@H]1C(=O)N[C@H](CCC(=O)O)C(=O)O was tested. Which Activity did it give?
**A.** inactive

**Q.** Which Activity does the source give for NCC(=O)N1CSC[C@@H]1C(=O)N[C@@H](CCC(=O)O)C(=O)O here?
**A.** inactive

**Q.** Which Activity does the source give for NCC(=O)N1CCC[C@H]1C(=O)N[C@H](CCCC(=O)O)C(=O)O here?
**A.** inactive

**Q.** How did the Activity turn out when NCC(=O)N1CCC[C@H]1C(=O)N[C@H](CC(=O)O)C(=O)O was run?
**A.** inactive
